This is an account of results in patent EP2493892B1, “QUINUCLIDINE COMPOUNDS AS ALPHA-7 NICOTINIC ACETYLCHOLINE RECEPTOR LIGANDS” (Bristol-Myers Squibb Company, priority 2009, dated 2011).

In the experiment the target is T1, α-7 nicotinic ACh receptor ion channels expressed in mammalian HEK 293 cells (Rattus norvegicus, UniProt Q05941).
T1 construct: expressed in transfected cells
Nature of the experiment: Ca2+-sensitive, fluorescence-based assay for α-7 nicotinic acetylcholine receptor channel function in mammalian cells (FLIPR). Type of experiment: cell-based. As to conditions: agonist activity, Ca2+ flux, read-out: FLIPR α7 activity rating (EC50). How it is done:
• I) α7 Nicotinic Acetycholine Receptor Binding. Membranes were prepared for binding using HEK293 cells stably expressing the rat α7 nicotinic acetycholine receptor (rat α7 nAChR). Cells were homogenized at 4°C in hypotonic lysis buffer consisting of 10 mM Tris (pH 7.4), 5 mM EDTA and protease inhibitors and centrifuged at 32000 xg for 20 minutes. The pellet was washed once in membrane wash buffer consisting of 50 mM Tris (pH 7.4), 1 mM EDTA and protease inhibitors and centrifuged at 32000 xg for 20 minutes. This pellet was then resuspended in assay buffer consisting 50 mM KH2PO4 (pH 7.4 at 25°C), 1 mM EDTA, 0.005 % Triton-X 100 and 0.1% (v/v) Sigma Protease Inhibitor Cocktail. Aliquots were then frozen in dry ice/ethanol and kept at -80°C until the day of the assay. • II) A Ca^2+ -Sensitive, Fluorescence-Based Assay α-7 for Nicotinic Acetylcholine Receptor Channel Function In Mammalian Cells ("FLIPR"). Summary: Lead compounds are evaluated for agonist activity at α-7, α3β4, α4αβ2, and α1β1δ1ε sub-types of nicotinic ACh receptor ion channels expressed in mammalian HEK 293 cells. Agonist potency and efficacy values are determined from kinetic fluorescence Ca^2+ influx measurements made using a 384 well FLIPR (Fluorescence Image Plate Reader). […] The basal fluorescence from the cells is monitored in real time, followed by the acute addition of test compounds. […]
For orientation: Calcium assays in cells follow changes in intracellular calcium, usually with a dye or a luminescent sensor.

T1 sequence (Q05941 23-502): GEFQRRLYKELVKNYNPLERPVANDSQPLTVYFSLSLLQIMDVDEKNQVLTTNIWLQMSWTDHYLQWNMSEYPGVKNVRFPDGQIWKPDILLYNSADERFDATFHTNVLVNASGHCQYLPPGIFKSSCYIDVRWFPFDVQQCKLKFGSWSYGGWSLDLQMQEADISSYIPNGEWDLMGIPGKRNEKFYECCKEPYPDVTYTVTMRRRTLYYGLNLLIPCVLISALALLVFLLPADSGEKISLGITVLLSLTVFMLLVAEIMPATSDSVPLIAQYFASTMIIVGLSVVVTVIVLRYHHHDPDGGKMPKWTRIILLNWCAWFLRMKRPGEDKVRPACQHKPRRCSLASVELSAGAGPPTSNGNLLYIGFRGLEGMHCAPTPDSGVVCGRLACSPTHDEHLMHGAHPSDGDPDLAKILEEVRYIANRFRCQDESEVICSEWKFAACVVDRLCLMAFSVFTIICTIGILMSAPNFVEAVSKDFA

In general, EC50 refers to the concentration giving half of the maximal effect. In the case of `c1cncc(-c2ccnc(NC3=NC[C@@]4(CN5CCC4CC5)O3)c2)c1` [Example 1, (R)-N-(3,4'-Bipyridin-2'-yl)-4H-1'-azaspiro[oxazole-5,3'-bicyclo[2.2.2]octan]-2-amine], the EC50 is under 100 nM.
